Experimental data from patent publication US12403116B2, “Hydroxypentyl benzoic acid diester compound, and preparation method and pharmaceutical application thereof” (CHINESE ACADEMY OF MEDICAL SCIENCES INSTITUTE OF MEDICINAL …, priority 2022, dated 2025).

How the values were obtained:
Type in all cases: in vivo, rat
[1] = system: MCAO/R model rats; test: Neurological function evaluation (Longa 5-level score) in MCAO/R model rats; settings: for neurological function scores: 24 hours of reperfusion, Longa score; for neurological function scores compared with the NBP group / efficiency (vs NBP group): NBP 5 mg/kg; for neurological function scores compared with the NBP group: result in words; for efficiency (vs L-NBP group): L-NBP 2.5 mg/kg
Method: (§1) • SHAM group: sham surgery group • Middle cerebral artery occlusion (MCAO) model group • Butylphthalide (NBP): 5 mg/kg • Levobutylphthalide (L-NBP): 2.5 mg/kg • NRB (Compound 1): 15 mg/kg (equivalent to a dose of 4.9 mg/kg of NBP through conversion) • Low dose of L-NRB (compound 2): 7.5 mg/kg (equivalent to a dose of 2.45 mg/kg of L-NBP through conversion) • High dose of L-NRB (compound 2): 15 mg/kg (equivalent to a dose of 4.9 mg/kg of L-NBP through conversion) • Aspirin group (ASP): 10 mg/kg 2. Administration Method
(§2) The rats in the sham surgery group and the MCAO model group were administered the same amount of normal saline by intraperitoneal administration for 5 consecutive days before modeling, and then the MCAO operation was performed.
(§3) The middle cerebral artery occlusion (MCAO) model was made by thread-occlusion method. The operation process was strictly conducted in aseptic mode. The main operation process was as follows: the rat was anesthetized by intraperitoneal injection of chloral hydrate, the common carotid artery (CCA), external carotid artery (ECA) and internal carotid artery (ICA) were separated, the common carotid artery was clamped with a microarterial clamp, and the branches of the external carotid artery were electrocoagulated with a bipolar electrocoagulation pen. The main trunk of the external carotid artery was separated and ligated at a distance of 3-4 mm from the bifurcation of the common carotid artery. The internal carotid artery was temporarily clamped with a micro artery clamp. A small incision into the external carotid artery was cut with an ophthalmic scissors, and a 4-0 monofilament nylon thread coated with methylpolysiloxane was inserted. A loose knot was made at the incision of the external carotid artery to block the blood reflux of the internal carotid artery. The micro artery clamp of the internal carotid artery was removed, and the nylon thread is gently pushed into the internal carotid artery to reach the anterior cerebral artery in the skull, to block the opening of the middle cerebral artery (MCA), and the insert depth is approximately 18-22 mm. The microarterial clamp of the common carotid artery was removed, the subcutaneous tissue and skin were sutured layer by layer after disinfection, and the nylon thread was slowly draw out at 2 hours after operation, and the reperfusion was conducted. In the sham surgery group, all operations were the same except that nylon thread was not inserted. The rectal temperature of all rats was maintained at 37° C. throughout the entire experimental process.
After 24 hours of reperfusion, all rats were evaluated for neurobehavioral scores using the Longa 5-level scoring method. Longa scoring standard: 0, normal, without neurological impairment; 1, left forelimb extension disorder, weakened function; 2, circling to the left, paralysis of the left forelimb and severe impairment of function, and the rat keeps twisting towards the damaged area after lifting the rat's tail; 3, when walking, tilt to the left; 4, limb paralysis, unconscious consciousness.

[2] = system: MCAO/R model rats; test: Cerebral infarction area (TTC staining) in MCAO/R model rats; settings: for infarction area (%): 24 hours of reperfusion, TTC staining; for efficiency (vs L-NBP model group): L-NBP 2.5 mg/kg; for efficiency (vs NBP model group) / cerebral infarction area compared with the NBP group: NBP 5 mg/kg; for cerebral infarction area compared with the NBP group: result in words
Method: as §1, §2, §3
After 24 hours of reperfusion, the cerebral infarction area was measured using tetrazolium red (TTC) staining. The rats were killed by cutting the neck, and the whole brain was quickly taken out. After being placed in the refrigerator at −20° C. for a short time and placed on the ice plate, and the olfactory bulb was removed. The forebrain was cut into six slices with a thickness of 2 mm along the coronal plane. The brain slices were placed in 1.5 mL of 2% TTC solution and incubated in dark for 30 minutes. Then the brain slices were fixed in 10% paraformaldehyde overnight, and then photographed for analysis. Use Image-J software to measure and calculate the volume of cerebral infarction.

[3] = system: rats with middle cerebral artery occlusion (MCAO) model; test: Pre-experiments: reduction of cerebral infarction area in MCAO model rats; settings: result in words; C compared with B, D compared among 1:2 conjugates
Description: Based on the effects of both butylphthalide and dexborneol on improving cerebral circulation and protecting cardio cerebral vessels, the inventor team of this application adopted progressive pre-experiments. First, butylphthalide and dexborneol were simply combined in a molar ratio 1:1 to form a composition.

[4] = neurological function score, dose 7.5 mg/kg
[5] = neurological function score, dose 15 mg/kg
[6] = cerebral infarction area, dose 7.5 mg/kg
[7] = cerebral infarction area, dose 15 mg/kg
[8] = neurological function score, dose 2.5 mg/kg

CCCCC1OC(=O)c2ccccc21 (racemic) [NBP, (R/S)-3-n-butyl-1(3H)-isobenzofuranone, reference compound]
neurological function scores ([1]; dose 5 mg/kg): 2.3 ± 1.0
inhibition rate (vs model group) ([1]; neurological function score, dose 5 mg/kg): 32.4%
infarction inhibition rate (vs model group) ([2]; dose 5 mg/kg): 34.2%
infarction area (%) ([2]; dose 5 mg/kg): 19.4 ± 7.0 %

CCCC[C@H](OC(=O)CCC(=O)OC1CC2CCC1(C)C2(C)C)c1ccccc1C(=O)OC1CC2CCC1(C)C2(C)C (stereo in doubt) [L-NRB]
neurological function scores ([1]; dose 7.5 mg/kg): 1.4 ± 0.7**$
neurological function scores compared with the NBP group ([1]; dose 7.5 mg/kg, p<0.05): significant reductions
neurological function scores ([1]; dose 15 mg/kg): 1.1 ± 0.4**$$&
neurological function scores compared with the NBP group ([1]; dose 15 mg/kg): significant reductions
inhibition rate (vs model group) [1, 4]: 58.8%
efficiency (vs L-NBP group) [1, 4]: 22.2%
efficiency (vs NBP group) [1, 4]: 39.1%
inhibition rate (vs model group) [1, 5]: 67.6%
efficiency (vs ASP group) ([1]; neurological function score, dose 15 mg/kg, ASP 10 mg/kg): 31.3%
efficiency (vs L-NBP group) [1, 5]: 38.9%
efficiency (vs NBP group) [1, 5]: 52.2%
efficiency (vs L-NBP model group) [2, 6]: 29.1%
efficiency (vs NBP model group) [2, 6]: 42.3%
Efficiency (vs ASP model group) ([2]; cerebral infarction area, dose 15 mg/kg, ASP 10 mg/kg): 56.6%
efficiency (vs L-NBP model group) [2, 7]: 58.2%
efficiency (vs NBP model group) [2, 7]: 66.0%
infarction inhibition rate (vs model group) ([2]; dose 7.5 mg/kg): 62.0%
infarction area (%) ([2]; dose 7.5 mg/kg): 11.2 ± 4.4**$ %
cerebral infarction area compared with the NBP group ([2]; dose 7.5 mg/kg, p<0.05): significant reductions
infarction inhibition rate (vs model group) ([2]; dose 15 mg/kg): 77.6%
infarction area (%) ([2]; dose 15 mg/kg): 6.6 ± 3.5**$$&& %
cerebral infarction area compared with the NBP group ([2]; dose 15 mg/kg): significant reductions

CC(=O)Oc1ccccc1C(=O)O [ASP, Aspirin, reference compound]
neurological function scores ([1]; dose 10 mg/kg): 1.6 ± 0.5
inhibition rate (vs model group) ([1]; neurological function score, dose 10 mg/kg): 52.9%
infarction inhibition rate (vs model group) ([2]; dose 10 mg/kg): 48.5%
infarction area (%) ([2]; dose 10 mg/kg): 15.2 ± 7.0 %

CCCC[C@@H]1OC(=O)c2ccccc21 [L-NBP, Levobutylphthalide, reference compound]
neurological function scores ([1]; dose 2.5 mg/kg): 1.8 ± 0.6
inhibition rate (vs model group) [1, 8]: 47.1%
efficiency (vs NBP group) [1, 8]: 21.7%
efficiency (vs NBP model group) ([2]; cerebral infarction area, dose 2.5 mg/kg): 18.6%
infarction inhibition rate (vs model group) ([2]; dose 2.5 mg/kg): 46.4%
infarction area (%) ([2]; dose 2.5 mg/kg): 15.8 ± 6.7 %

CCCCC(OC(=O)CCC(=O)O[C@@H]1C[C@@H]2CC[C@@]1(C)C2(C)C)c1ccccc1C(=O)O[C@@H]1C[C@@H]2CC[C@@]1(C)C2(C)C (some centres unmarked) [NRB]
neurological function scores ([1]; dose 15 mg/kg): 1.3 ± 0.5**$
neurological function scores compared with the NBP group ([1]; dose 15 mg/kg): significant reductions
inhibition rate (vs model group) [1, 5]: 61.8%
efficiency (vs NBP group) [1, 5]: 43.5%
efficiency (vs NBP model group) [2, 7]: 44.8%
infarction inhibition rate (vs model group) ([2]; dose 15 mg/kg): 63.7%
infarction area (%) ([2]; dose 15 mg/kg): 10.7 ± 7.9**$ %
cerebral infarction area compared with the NBP group ([2]; dose 15 mg/kg): significant reductions

CCCCC(OC(C)=O)c1ccccc1C(=O)O[C@@H]1C[C@@H]2CC[C@@]1(C)C2(C)C (some centres unmarked) [formula B]
activity (pre-experiments, comparison between conjugates) [3]: only slightly improved

CCCCC(OC(=O)CCC(=O)O[C@@H]1C[C@@H]2CC[C@@]1(C)C2(C)C)c1ccccc1C(=O)O[C@@H]1C[C@@H]2CC[C@@]1(C)C2(C)C (some centres unmarked) [formula C]
activity (pre-experiments, comparison between conjugates) [3]: significantly better

CCCC[C@H](OC(=O)CCC(=O)O[C@@H]1C[C@@H]2CC[C@@]1(C)C2(C)C)c1ccccc1C(=O)O[C@@H]1C[C@@H]2CC[C@@]1(C)C2(C)C [formula D]
activity (pre-experiments, comparison between conjugates) [3]: superior
